Measurements published in publication PMC10850145, “Hormonal steroids induce multidrug resistance and stress response genes in Neisseria gonorrhoeae by binding to MtrR” (Nature Communications, 2024).
Values joined by “and” are separate entries in the source; they are usually repeats but may differ in a detail not shown here. Equal entries are not always repeated. Where two headings read alike, the source gives them in different places.

Test system: mtrC-lacZ expression
Assay type: cell-based, Neisseria gonorrhoeae
Conditions: for mtrC-lacZ β-galactosidase activity, Mean: left block of sheet (mtrCDE); for β-galactosidase activity, Mean: second (right) untitled block of sheet Figure S10 (mtrC)
[1] = strain ΔmtrR + mtrR R176E, 6.25 µM hormone
[2] = strain ΔmtrR + mtrR R176E, 12.5 µM hormone
[3] = strain ΔmtrR + mtrR R176E, 25 µM hormone
[4] = strain ΔmtrR + mtrR R176E, 50 µM hormone
[5] = strain ΔmtrR + mtrR WT, 6.25 µM hormone
[6] = strain ΔmtrR + mtrR WT, 12.5 µM hormone
[7] = strain ΔmtrR + mtrR WT, 25 µM hormone
[8] = strain ΔmtrR + mtrR WT, 50 µM hormone

CC(=O)[C@H]1CC[C@H]2[C@@H]3CCC4=CC(=O)CC[C@]4(C)[C@H]3CC[C@]12C [Progesterone, progesterone] was tested, and the “β-galactosidase activity, mtrC-lacZ, Mean” value (strain WT (FA19/pLES94-mtrC), hormone 6.25 µM) was 97 Miller units, the “β-galactosidase activity, mtrC-lacZ, Mean” value (strain WT (FA19/pLES94-mtrC), hormone 12.5 µM) was 126 Miller units and the “β-galactosidase activity, mtrC-lacZ, Mean” value (strain WT (FA19/pLES94-mtrC), hormone 25 µM) was 146 Miller units. For the same molecule, the “β-galactosidase activity, mtrC-lacZ, Mean” value (strain WT (FA19/pLES94-mtrC), hormone 50 µM) was 139 Miller units, the “mtrC-lacZ β-galactosidase activity, Mean” value (strain WT, 6.25 µM hormone) was 108 Miller units and the “β-galactosidase activity, Mean” value (strain WT, 6.25 µM hormone) was 36 Miller units. For the same molecule, the “mtrC-lacZ β-galactosidase activity, Mean” value (strain WT, 12.5 µM hormone) was 144 Miller units, the “β-galactosidase activity, Mean” value (strain WT, 12.5 µM hormone) was 47 Miller units and the “mtrC-lacZ β-galactosidase activity, Mean” value (strain WT, 25 µM hormone) was 194 Miller units. For the same molecule, the “β-galactosidase activity, Mean” value (strain WT, 25 µM hormone) was 70 Miller units, the “mtrC-lacZ β-galactosidase activity, Mean” value (strain WT, 50 µM hormone) was 222 Miller units and the “β-galactosidase activity, Mean” value (strain WT, 50 µM hormone) was 97 Miller units. For the same molecule, the “activation of mtrC” value (strain producing MtrR R176E) was “almost no activation”, the “β-galactosidase activity, mtrC-lacZ, Mean” value (strain ΔmtrR (FA19 ∆mtrR/pLES94-mtrC), hormone 6.25 µM) was 210 Miller units and the “β-galactosidase activity, mtrC-lacZ, Mean” value (strain ΔmtrR (FA19 ∆mtrR/pLES94-mtrC), hormone 12.5 µM) was 191 Miller units. The “β-galactosidase activity, mtrC-lacZ, Mean” value (strain ΔmtrR (FA19 ∆mtrR/pLES94-mtrC), hormone 25 µM) was 234 Miller units, the “β-galactosidase activity, mtrC-lacZ, Mean” value (strain ΔmtrR (FA19 ∆mtrR/pLES94-mtrC), hormone 50 µM) was 188 Miller units and the “β-galactosidase activity, mtrC-lacZ, Mean” value (strain ΔmtrR + mtrR D171A (pGCC3-mtrR D171A), hormone 6.25 µM) was 146 Miller units. For the same molecule, the “β-galactosidase activity, mtrC-lacZ, Mean” value (strain ΔmtrR + mtrR D171A (pGCC3-mtrR D171A), hormone 12.5 µM) was 142 Miller units, the “β-galactosidase activity, mtrC-lacZ, Mean” value (strain ΔmtrR + mtrR D171A (pGCC3-mtrR D171A), hormone 25 µM) was 168 Miller units and the “β-galactosidase activity, mtrC-lacZ, Mean” value (strain ΔmtrR + mtrR D171A (pGCC3-mtrR D171A), hormone 50 µM) was 106 Miller units. For the same molecule, the “mtrC-lacZ β-galactosidase activity, Mean” value [1] was 217 Miller units, the “β-galactosidase activity, Mean” value [1] was 91 Miller units and the “mtrC-lacZ β-galactosidase activity, Mean” value [2] was 208 Miller units. For the same molecule, the “β-galactosidase activity, Mean” value [2] was 92 Miller units, the “mtrC-lacZ β-galactosidase activity, Mean” value [3] was 226 Miller units and the “β-galactosidase activity, Mean” value [3] was 111 Miller units. The “mtrC-lacZ β-galactosidase activity, Mean” value [4] was 231 Miller units, the “β-galactosidase activity, Mean” value [4] was 98 Miller units and the “β-galactosidase activity, mtrC-lacZ, Mean” value (strain ΔmtrR + mtrR WT (pGCC3-mtrR), hormone 6.25 µM) was 84 Miller units. The “β-galactosidase activity, mtrC-lacZ, Mean” value (strain ΔmtrR + mtrR WT (pGCC3-mtrR), hormone 12.5 µM) was 89 Miller units, the “β-galactosidase activity, mtrC-lacZ, Mean” value (strain ΔmtrR + mtrR WT (pGCC3-mtrR), hormone 25 µM) was 113 Miller units and the “β-galactosidase activity, mtrC-lacZ, Mean” value (strain ΔmtrR + mtrR WT (pGCC3-mtrR), hormone 50 µM) was 129 Miller units. The “mtrC-lacZ β-galactosidase activity, Mean” value [5] was 95 Miller units, the “β-galactosidase activity, Mean” value [5] was 19 Miller units and the “mtrC-lacZ β-galactosidase activity, Mean” value [6] was 111 Miller units. For the same molecule, the “β-galactosidase activity, Mean” value [6] was 24 Miller units, the “mtrC-lacZ β-galactosidase activity, Mean” value [7] was 124 Miller units and the “β-galactosidase activity, Mean” value [7] was 34 Miller units. For the same molecule, the “mtrC-lacZ β-galactosidase activity, Mean” value [8] was 160 Miller units, the “β-galactosidase activity, Mean” value [8] was 45 Miller units and the “mtrC-lacZ β-galactosidase activity, Mean” value (strain ΔmtrR, 6.25 µM hormone) was 311 Miller units. The “β-galactosidase activity, Mean” value (strain ΔmtrR, 6.25 µM hormone) was 126 Miller units, the “mtrC-lacZ β-galactosidase activity, Mean” value (strain ΔmtrR, 12.5 µM hormone) was 285 Miller units and the “β-galactosidase activity, Mean” value (strain ΔmtrR, 12.5 µM hormone) was 129 Miller units. For the same molecule, the “mtrC-lacZ β-galactosidase activity, Mean” value (strain ΔmtrR, 25 µM hormone) was 297 Miller units, the “β-galactosidase activity, Mean” value (strain ΔmtrR, 25 µM hormone) was 134 Miller units and the “mtrC-lacZ β-galactosidase activity, Mean” value (strain ΔmtrR, 50 µM hormone) was 286 Miller units. For the same molecule, the “β-galactosidase activity, Mean” value (strain ΔmtrR, 50 µM hormone) was 97 Miller units, the “β-galactosidase activity, Miller units (single replicate)” value (“β-galactosidase activity, Miller units” below) (ΔmtrR + mtrR WT in trans, 6.25 µM, first data set (c15-c36)) was 95 Miller units and the “β-galactosidase activity, Miller units” value (ΔmtrR + mtrR WT in trans, 6.25 µM, second data set (c53-c74)) was 19 Miller units and 16 Miller units and 17 Miller units and 23 Miller units. For the same molecule, the “β-galactosidase activity, Miller units” value (ΔmtrR + mtrR WT in trans, 12.5 µM, first data set (c15-c36)) was 114 Miller units, the “β-galactosidase activity, Miller units” value (ΔmtrR + mtrR WT in trans, 12.5 µM, second data set (c53-c74)) was 22 Miller units and 26 Miller units and 24 Miller units and the “β-galactosidase activity, Miller units” value (ΔmtrR + mtrR WT in trans, 25 µM, first data set (c15-c36)) was 128 Miller units. For the same molecule, the “β-galactosidase activity, Miller units” value (ΔmtrR + mtrR WT in trans, 25 µM, second data set (c53-c74)) was 39 Miller units and 34 Miller units and 32 Miller units and 31 Miller units, the “β-galactosidase activity, Miller units” value (ΔmtrR + mtrR WT in trans, 50 µM, first data set (c15-c36)) was 194 Miller units and the “β-galactosidase activity, Miller units” value (ΔmtrR + mtrR WT in trans, 50 µM, second data set (c53-c74)) was 54 Miller units and 51 Miller units and 38 Miller units and 39 Miller units. For the same molecule, the “β-galactosidase activity, Miller units” value (ΔmtrR, 6.25 µM, first data set (c15-c36)) was 324 Miller units and 312 Miller units and 315 Miller units and 294 Miller units, the “β-galactosidase activity, Miller units” value (ΔmtrR, 6.25 µM, second data set (c53-c74)) was 161 Miller units and 130 Miller units and 118 Miller units and 97 Miller units and the “β-galactosidase activity, Miller units” value (ΔmtrR, 12.5 µM, first data set (c15-c36)) was 289 Miller units and 316 Miller units and 292 Miller units and 245 Miller units. The “β-galactosidase activity, Miller units” value (ΔmtrR, 12.5 µM, second data set (c53-c74)) was 170 Miller units and 117 Miller units and 123 Miller units and 105 Miller units, the “β-galactosidase activity, Miller units” value (ΔmtrR, 25 µM, first data set (c15-c36)) was 397 Miller units and 288 Miller units and 270 Miller units and 234 Miller units and the “β-galactosidase activity, Miller units” value (ΔmtrR, 25 µM, second data set (c53-c74)) was 195 Miller units and 111 Miller units and 136 Miller units and 96 Miller units. For the same molecule, the “β-galactosidase activity, Miller units” value (ΔmtrR, 50 µM, first data set (c15-c36)) was 318 Miller units and 329 Miller units and 263 Miller units and 234 Miller units and the “β-galactosidase activity, Miller units” value (ΔmtrR, 50 µM, second data set (c53-c74)) was 134 Miller units and 92 Miller units and 84 Miller units and 79 Miller units.
